From patent US12227782B2, “Method for producing protein” (priority 2018, dated 2025) come the findings set out here.

The test system of the assay is Trichoderma reesei X3AB1 strain. Put plainly: Test 1/Test 2: amount of protein produced (Bradford method) in culture supernatant. The format is cell-based. The procedure:
Trichoderma reesei X3AB1 strain (J. Ind. Microbiol. Biotechnol., 2012, 174: 1-9; hereinafter, referred to as X3AB1 strain) was cultured in a cellulose-containing culture medium to produce a protein containing a cellulase. As preculture, 50 mL of a culture medium was added to a 500 mL flask, spores of X3AB1 strain were inoculated at 1×10^5 cells/mL, and shaking culture was performed at 220 rpm (PRXYg-98R from PRECI CO., LTD.) at 28° C. The culture medium composition was as follows: 1% glucose, 0.14% (NH4)2SO4, 0.2% KH2PO4, 0.03% CaCl2·2H2O, 0.03% MgSO4·7H2O, 0.1% Bacto Peptone (BD Difco), 0.05% Bacto Yeast extract (BD Difco), 0.1% TWEEN® 80 (polysorbate 80), 0.1% Trace element and 50 mM tartrate buffer (pH 4.0). The composition of the Trace element was as follows: 6 mg of H3BO3, 26 mg of (NH4)6Mo7O24·4H2O, 100 mg of FeCl3·6H2O, 40 mg of CuSO4·5H2O, 8 mg of MnCl2·4H2O and 200 mg of ZnCl2 which were diluted to 100 mL with distilled water.
Main culture was performed after 2 days of preculture. […]
The culture solutions obtained in Comparative Example 1 and Examples 1 and 2 were centrifuged. […] The concentration of protein in the supernatant was measured by the Bradford method. The protein concentration of the supernatant was calculated on the basis of a calibration curve with bovine γ-globulin as standard protein using Quick Start Protein Assay (BioRad) based on the Bradford method, and the protein concentration was defined as an amount of protein produced. […]
For the culture solutions obtained from Comparative Examples 2 and 3 and Examples 3 to 6, the amount of protein produced was measured in the same manner as in Test 1. […]

In the case of `N[C@@H]1O[C@H](CO)[C@@H](O)[C@H](O)[C@H]1O` [β-D-glucopyranosylamine], the “increase of maximum amount of protein produced as compared to Comparative Example 1” value (Example 1: 0.5% added to initial culture medium of main culture, maximum on day 3 of culture, 10% powder cellulose medium) is recorded as not below 20% and the “increase of maximum amount of protein produced as compared to Comparative Example 1” value (Example 2: 8% aqueous solution fed 0.6 g/L initial culture medium/hr at 15-63 hr (total 0.2%), maximum on day 4 of culture) was not below 20%. Moreover, for the setting “Examples 3 to 6: fed together with glucose (38% glucose/2% or 35% glucose/5% aqueous solution) versus 40% glucose feed (Comparative Examples 2 and 3)”, the “protein productivity as the amount added in the culture increased” value is reported as “tended to be improved”.
